What all share (assay): NCI-60 cell line screen, 48 h
Assay [1] deals with MDA-MB-231 breast.
Assay [2] has as its system PC-3 prostate.
In assay [3] the test system is DU-145 prostate.
For assay [4], the system named is MDA-MB-435.

From PubChem BioAssay (NCI) come the findings set out here.

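All cell lines were grown in 96-well plates and treated with compound for 48 hours. The concentration for 50% growth inhibition is given as GI50. TGI marks complete inhibition of growth.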

Regarding `COC12c3ccccc3-c3ccccc3C1[C@@H](C(=O)O)[C@H]2C(=O)O` (stereo partly drawn), the TGI in assay [1], in assay [2], in assay [3] and in assay [4] was greater than 10 µM each time.
In the case of `COc1cc(-c2cn(-c3ccc(Cl)cc3)c(=O)n2-c2ccccc2)cc(OC)c1OC`, the GI50 in assay [1] was 32.9 µM; in assay [2], 69.9 µM; in assay [3] it was greater than 100 µM; in assay [4], greater than 100 µM. In addition, the TGI in assay [1], in assay [2], in assay [3] and in assay [4] was greater than 100 µM in each case.
`O=C(/C=C/c1cccnc1)/C=C/c1cccnc1`: the GI50 in assay [1] was 2.05 µM; in assay [2] it was 0.558 µM; in assay [3], 2.57 µM; in assay [4] it was 1.78 µM. For the same molecule, the TGI in assay [1] is 5.8 µM; in assay [2], 3.01 µM; in assay [3] it was 6.45 µM; in assay [4], 4.84 µM.
With `CCN=C(N)CSS(=O)(=O)O`, the TGI in assay [1], in assay [2], in assay [3] and in assay [4] was greater than 100 µM each time.
For `O=C1/C(=C\c2ccccc2)CN(C(=O)c2ccccc2F)C/C1=C\c1ccccc1`, the GI50 is 2 µM in assay [1], 2.34 µM in assay [2], 2.73 µM in assay [3] and 1.13 µM in assay [4]. In addition, the TGI was determined as 4.06 µM in assay [1], 7.22 µM in assay [2], 6.41 µM in assay [3] and 3.32 µM in assay [4].
For the molecule `COC(=O)Oc1nn(C(=O)OC)c(=O)c2ccccc12` (tested in a mixture with another compound), the TGI in assay [1], in assay [2], in assay [3] and in assay [4] was greater than 100 µM each time.
Consider `CCOC(=O)c1c(-c2ccccc2)[nH]c2ccccc2c1=O`, for which the TGI in assay [2] and in assay [3] was greater than 100 µM in each case.
`C/C=C(\C)C(=O)O[C@@H]1C=CC(=O)O[C@H]1COC(=O)[C@H](C)O`: the GI50 in assay [1] was 13.7 µM; in assay [2], 10.5 µM; in assay [3], 10.8 µM; in assay [4], 15.2 µM. Moreover, the TGI in assay [1] came to 29.1 µM; in assay [2], 31.6 µM; in assay [3], 31.8 µM; in assay [4], 71.6 µM.
As for `Nc1nccc(C#Cc2cncnc2Nc2ccc(OCc3cccc(F)c3)c(Cl)c2)n1`, the GI50 in assay [1] is 5.56 µM; in assay [2] it was 4.5 µM; in assay [3], 4.37 µM; in assay [4], 5.36 µM. The TGI is 13.1 µM in assay [1], 9.63 µM in assay [2], 7.81 µM in assay [3] and greater than 23.8 µM in assay [4].
With `O=S(=O)(Nc1ccc2ccc3cccc4ccc1c2c34)c1ccccc1`, the TGI in assay [1] is greater than 100 µM; in assay [2], greater than 100 µM; in assay [3], greater than 100 µM; in assay [4], 24.4 µM.
Consider `Cn1cc(-c2nonc2-c2cn(C)c3ccc(Br)cc23)c2ccccc21`, for which the GI50 in assay [1] is 3.67 µM; in assay [2], 4.06 µM; in assay [3] it was 4.09 µM. Also, the TGI in assay [1], in assay [2] and in assay [3] was greater than 100 µM in each case.
Regarding `CN(C)c1ccc(N=C(C#N)c2nc(N)nc(N3CCOCC3)n2)cc1`, the GI50 in assay [1] is 20.7 µM; in assay [2], 44.1 µM; in assay [3], 49.8 µM; in assay [4], 53.2 µM. Moreover, the TGI was 50.5 µM in assay [1], greater than 100 µM in assay [2], greater than 100 µM in assay [3] and greater than 100 µM in assay [4].
`COc1cc2c(cc1OCCCN1CCN(CCCOc3cc4c(cc3OC)C(=O)C3CCC[C@H]3C=N4)CC1)N=C[C@@H]1CCCC1C2=O` (stereo partly drawn): the GI50 in assay [1] is 8.44 µM; in assay [2], 2.99 µM; in assay [3] it was 2.41 µM; in assay [4], 5.89 µM. Besides, the TGI in assay [1] was greater than 26.6 µM; in assay [2], greater than 77.1 µM; in assay [3], greater than 100 µM; in assay [4], 30.3 µM.
On to `c1ccc2c(c1)SCCCSCCCS2`, for which the TGI in assay [1], in assay [2], in assay [3] and in assay [4] was greater than 100 µM throughout.
`CC[C@]12C=CCN3CC[C@]4(C(=C(C(=O)OC)C1)Nc1ccccc14)[C@@H]32`: the GI50 in assay [1] is 3.19 µM; in assay [2], 5.36 µM; in assay [3], 3.81 µM; in assay [4] it was 2.06 µM. The TGI in assay [1] was found to be 13.3 µM; in assay [2] it was 22.8 µM; in assay [3], 14.5 µM; in assay [4] it was 5.63 µM.
Turning to `O=C(Nc1ccc(Cl)cc1)C(=O)C1=C(O)c2ccccc2OC1`, the TGI in assay [1], in assay [2], in assay [3] and in assay [4] was greater than 100 µM each time.
In the case of `c1ccc(COc2ccc(Nc3ncnc4ccc(-c5ccco5)cc34)cc2)cc1`, the GI50 in assay [1] is 5.49 µM; in assay [2], 8.47 µM; in assay [3], 5.74 µM; in assay [4], 6.83 µM. Moreover, the TGI in assay [1] was 13.7 µM; in assay [2], greater than 23.5 µM; in assay [3] it was 24.6 µM; in assay [4] it was 22.3 µM.
As for `C#CCSc1nnnn1-c1ccc(Br)c(C)c1`, the GI50 in assay [1] is 35.8 µM; in assay [2] it was 34.7 µM; in assay [3], 16.6 µM; in assay [4], 17.9 µM. Further, the TGI was greater than 100 µM in assay [1], greater than 100 µM in assay [2], 47.5 µM in assay [3] and 55.8 µM in assay [4].
In the case of `CCOC(=O)/C(=C/c1c(-c2ccccc2)[nH]c2ccccc12)C(=O)c1ccc(Cl)cc1`, the GI50 was 4.74 µM in assay [1], 3.08 µM in assay [2], 5.87 µM in assay [3] and 3.02 µM in assay [4]. In addition, the TGI in assay [1], in assay [2], in assay [3] and in assay [4] was greater than 100 µM each time.
Consider `COc1cc2nc(-c3ccc(Cl)cc3)cc(OCCCN3CCC(O)CC3)c2cc1OC`, for which the GI50 in assay [1] is 0.665 µM; in assay [2], 2.02 µM; in assay [3], 2.78 µM; in assay [4], 2.05 µM. In addition, the TGI worked out at 3.52 µM in assay [1], 12.7 µM in assay [2], 25.9 µM in assay [3] and 5.2 µM in assay [4].
